Measurements: patent publication US8734673B2, “Boron selective ionic liquids and polymeric ionic liquids, methods of making and methods of use thereof” (The University of Toledo, priority 2008, dated 2014)
Read-outs that look alike come from different tables or passages of the source.

What was measured:
[1] = Surface tension, DuNuoy tensiometer; assay type: physicochemical; details: room temperature (23° C.)
Experimental: Surface tension values were measured at room temperature (23° C.) using a Model 20 DuNuoy Tensiometer (Fisher Scientific, Fair Lawn, N.J.) equipped with a platinum-iridium ring with a mean circumference of 5.940 cm and a ring/wire radius of 53.21.

[2] = Density by weighing 2.0 mL of ionic liquid; assay type: physicochemical
Experimental: (§1) The densities of the ionic liquids […] were determined at 23° C. by placing 2.0 mL of the ionic liquid in a 2.0 mL volumetric tube and weighing by difference. The melting points of the ionic liquids were determined using a Perkin Elmer Pyris 1 Differential Scanning Calorimeter (Boston, Mass.). Typical methods involved using a 10° C./min temperature ramp to determine and identify the first and second order thermal transitions. […] For solid compounds, the melting points were verified using a capillary melting point apparatus. Refractive index measurements were conducted at 23° C. using a Bausch & Lomb Abbe-3L refractometer.

[3] = Refractive index, Abbe refractometer; assay type: physicochemical
Experimental: as §1

[4] = Thermal stability of thin film in fused silica capillary, flame ionization detection; assay type: physicochemical
Experimental: Thermal stabilities were measured by immobilizing an approximate 0.15-0.20 microns film of the ionic liquid on the inner wall of a fused silica capillary. The capillary was then heated slowly in an oven and a very sensitive flame ionization detector (or mass spectrometer) used to detect any volatilization or decomposition of the ionic liquid. There are several advantages of using this set-up to measure the thermal stabilities of ionic liquids. The thermal stability is measured in the absence of oxygen by purging the capillary with a continuous flow of an inert gas such as helium, hydrogen, or nitrogen. […] Finally, this approach can use mass spectrometry detection to determine the likely volatilization/decomposition products.

[5] = Solvation interaction parameters by inverse gas-liquid chromatography (Abraham model); assay type: physicochemical
Experimental: The preparation of the capillary columns for inverse gas-liquid chromatographic analysis was performed using a previously described procedure. All capillary columns had efficiencies between 2100 to 2500 plates/meter. Characterization of the capillary columns and probe molecule descriptions are listed in supplemental information. Multiple linear regression analysis (MLRA) and statistical calculations were performed using the program Analyse-it (Microsoft, USA).
Solvation Characteristics. We have previously reported that the Abraham solvation model, a linear free energy approach that utilizes inverse gas-liquid chromatography to describe the solvation properties of a liquid, can be used to characterize room temperature ionic liquids. Described by equation 1, the model provides the so-called “interaction parameters” (r, s, a, b, l) by using multiple linear regression analysis to fit the retention factor (k, determined chromatographically) to the solute descriptors (R2, π2^Hα2H, β2^H, log L^16) for a wide variety of probe solute molecules. […]
Previously we characterized a large number of room temperature ionic liquids in terms of multiple solvation interactions using the solvation parameter model, shown in equation log k=c+rR2+sπ2^H+aα2^H+bβ2^H+l log L^16 [3] This approach utilizes inverse gas-liquid chromatography and allows the use of a large number of probe molecules to deconvolute solute retention in terms of the type and magnitude of individual solvation interactions. The solute descriptors (R2, π2^H, α2^H, .β2^H, log L^16) from Equation 3 are obtained from the literature for many probe molecules containing a variety of functional groups. The retention factor is determined chromatographically. The solute descriptors and retention factors are subjected to multiple linear regression analysis to obtain the interaction parameter coefficients (r, s, a, b, l), which ultimately characterize the stationary phase: r is the ability of the diionic liquid containing-stationary phase to interact with .π0 and n electrons of the solute, s is a measure of the dipolarity/polarizability of the diionic liquid containing-stationary phase, a defines the diionic liquid containing-stationary phase hydrogen bond basicity, b is a measure of the hydrogen bond acidity, and l refers to the ability of the diionic liquid containing-stationary phase to separate adjacent members of a homologous series.
Test solutes used to determine interaction parameters and solvation thermodynamics were dissolved in dichloromethane. […] Split injection and flame ionization detection were utilized with injection and detection temperatures of 250° C. Helium was used as the carrier gas with a column inlet pressure of 3.1 psi and flow rate of 1.0 mL/min. Methane was used to determine the dead volume of the column. Multiple linear regression analysis and statistical calculations were performed using the program Analyze-it (Microsoft).

[6] = Miscibility/solubility in heptane and water
Description: The miscibility/solubility of all ionic liquids in both heptane and water are indicated as well.
The solubility behavior of all thirty-nine geminal dicationic ionic liquids in water and heptane also was explored.

[7] = Solubility assay of N-methyl-D-glucamine in solvents; assay type: physicochemical
Description: The mechanism for the transformation of N-methyl-D-glucamine into a quaternary ammonium compound is a double nucleophilic substitution with an alkyl halide (FIG. 57). However, the first problem the inventors herein encountered with this approach was the lack of an appropriate solvent.

Compound: 1,9-di(2,3-dimethylimidazolium)nonane di-tetrafluoroborate [C9(m2im)2-BF4]
- Surface Tension [1]: 58.1 dynes/cm
- Density ([2]; 23° C., Tables 1 and 2): 1.31 g/mL
- Refractive Index ([3]; 23° C., Tables 1 and 2): 1.456

Compound: C[N+]1(CCCCCCCCC[N+]2(C)CCCC2)CCCC1.O=S(=O)([N-]S(=O)(=O)C(F)(F)F)C(F)(F)F.O=S(=O)([N-]S(=O)(=O)C(F)(F)F)C(F)(F)F [C9(mpy)2-NTf2, 1,9-di(methylpyrrolidinium)nonane di-bis[(trifluoromethyl)sulfonyl]imidate]
- stable liquid range [4]: about −4 °C to >400 °C
- Interaction parameter a (hydrogen bond basicity) ([5]; 40° C.): 1.98
- Interaction parameter b (hydrogen bond acidity) ([5]; 40° C.): 0.32
- Interaction parameter c ([5]; 40° C.): −2.83
- Interaction parameter l (dispersion forces) ([5]; 40° C.): 0.62
- Interaction parameter r (interaction via nonbonding and π-electrons) ([5]; 40° C.): 0.27
- Interaction parameter s (dipolarity/polarizability) ([5]; 40° C.): 1.71
- Interaction parameter a (hydrogen bond basicity) ([5]; 70° C.): 1.65
- Interaction parameter b (hydrogen bond acidity) ([5]; 70° C.): 0.35
- Interaction parameter c ([5]; 70° C.): −2.85
- Interaction parameter l (dispersion forces) ([5]; 70° C.): 0.48
- Interaction parameter r (interaction via nonbonding and π-electrons) ([5]; 70° C.): 0.34
- Interaction parameter s (dipolarity/polarizability) ([5]; 70° C.): 1.52
- Interaction parameter a (hydrogen bond basicity) ([5]; 100° C.): 1.48
- Interaction parameter b (hydrogen bond acidity) ([5]; 100° C.): 0.15
- Interaction parameter c ([5]; 100° C.): −2.99
- Interaction parameter l (dispersion forces) ([5]; 100° C.): 0.42
- Interaction parameter r (interaction via nonbonding and π-electrons) ([5]; 100° C.): 0.23
- Interaction parameter s (dipolarity/polarizability) ([5]; 100° C.): 1.49

Compound: [Br-].[Br-].c1ccc(Cn2cc[n+](CCCCCCCCCCCC[n+]3ccn(Cc4ccccc4)c3)c2)cc1 [C12(benzim)2-Br, 1,12-di(3-benzylimidazolium)dodecane di-bromide]
- Miscibility with Water ([6]; listed as 28): insoluble in water

Compound: Cn1cc[n+](CCCCCCCCCCCC[n+]2ccn(C)c2)c1.[Br-].[Br-] [C12(mim)2-Br, 1,12-di(3-methylimidazolium)dodecane di-bromide]
- Surface Tension [1]: 57.9 dynes/cm
- Density ([2]; 23° C., Tables 1 and 2): 1.27 g/mL
- Miscibility with Water [6]: Miscible

Compound: C=Cn1cc[n+](CCCCCCCCCCCC)c1.O=S(=O)([N-]S(=O)(=O)C(F)(F)F)C(F)(F)F [Monomer 3, 1-vinyl-3-dodecylimidazolium bis[(trifluoromethane)sulfonyl]imidate]
- Density ([2]; monomers/crosslinkers, Table A): 1.23 g/mL
- Refractive Index ([3]; monomers/crosslinkers, Table A): 1.448

Compound: CNC[C@H](O)[C@@H](O)[C@H](O)[C@H](O)CO [N-methyl-D-glucamine]
- solubility in acetone, dimethyl formamide, tetrahydrofuran, ethyl acetate, acetonitrile and dichloromethane [7]: insoluble
- solubility in water, dimethylsulfoxide (DMSO) [7]: only soluble
